Measured values from US20060234997A1, “Tetrahydro-pyridoazepin-8-ones and related compounds for the treatment of schizophrenia” (WARNER-LAMBERT COMPANY LLC, priority 2005, published 2006).
Counter-ions that a name gives are not always drawn.

Assays:
[1] = biological target: T1, Dopamine D2 receptor (hD2L) (Homo sapiens, UniProt P14416); experiment: Dopamine D2 Receptor Binding Assay ([3H]spiperone, CHO-hD2L membranes); settings: [3H]spiperone 0.4 nM, membrane preparation from CHO-hD2L cells
T1 construct: expressed in transfected cells; host or cells: CHO cells (CHO-hD2L)
From the text: The ability of the novel compounds of this invention to bind to the dopamine D2 receptor can be determined using conventional radioligand receptor binding assays. All receptors can be heterologously expressed in cell lines and binding assays can be conducted in membrane preparations from the cell lines using procedures outlined below. IC50 concentrations can be determined by nonlinear regression of concentration-dependent reduction in specific binding. The Cheng-Prussoff equation can be used to convert the IC50 to Ki concentrations.
[^3H]Spiperone binding to a membrane preparation from CHO-hD2L cells was carried out in 250 μl of 50 mM Tris-HCl buffer containing 100 mM NaCl, 1 mM MgCl2 and 1% DMSO at pH 7.4. Duplicate samples containing (in order of addition) the test compounds, 0.4 nM [^3H]spiperone and approximately 12 μg protein were incubated for 120 minutes at room temperature. Bound radioligand was separated by rapid filtration under reduced pressure through Whatman GF/B glass fiber filters previously treated with 0.3% polyethyleneimine. Radioactivity retained on the filter is determined by liquid scintillation spectrophotometry.

T1 sequence (P14416 whole entry): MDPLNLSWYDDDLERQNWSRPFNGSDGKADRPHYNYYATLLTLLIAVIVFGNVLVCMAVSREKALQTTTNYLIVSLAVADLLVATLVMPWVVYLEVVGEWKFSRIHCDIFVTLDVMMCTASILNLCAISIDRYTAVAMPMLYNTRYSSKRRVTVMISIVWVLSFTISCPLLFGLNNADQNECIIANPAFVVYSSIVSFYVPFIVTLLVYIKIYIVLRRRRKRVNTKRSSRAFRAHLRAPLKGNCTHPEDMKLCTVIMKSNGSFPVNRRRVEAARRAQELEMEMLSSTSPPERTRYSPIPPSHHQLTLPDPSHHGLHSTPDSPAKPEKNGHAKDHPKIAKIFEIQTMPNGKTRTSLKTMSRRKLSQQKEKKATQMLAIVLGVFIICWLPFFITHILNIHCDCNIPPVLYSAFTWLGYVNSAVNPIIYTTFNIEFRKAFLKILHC

| Compound | melting point [°C] | Ki [1] [nM] |
| --- | --- | --- |
| O=C1NCCc2ccc(OCCCCN3CCN(c4cccc(Cl)c4Cl)CC3)nc2N1 (as salt: HCl) [Example 14, 2-{4-[4-(2,3-Dichloro-phenyl)-piperazin-1-yl]-butoxy}-5,6,7,9-tetrahydro-1,7,9-triaza-benzocyclohepten-8-one] | 197 to 199 | – |
| O=C1NCCc2ccc(OCCCCN3CCN(c4cccc5ccccc45)CC3)nc2N1 (as salt: HCl) [Example 15, 2-[4-(4-Naphthalen-1-yl-piperazin-1-yl)-butoxy]-5,6,7,9-tetrahydro-1,7,9-triaza-benzocyclohepten-8-one] | 188 to 190 | – |
| O=C1NCCc2ccc(OCCCCN3CCN(c4cccc5c4CCCC5)CC3)nc2N1 (as salt: HCl) [Example 16, 2-{4-[4-(5,6,7,8-Tetrahydro-naphthalen-1-yl)-piperazin-1-yl]-butoxy}-5,6,7,9-tetrahydro-1,7,9-triaza-benzocyclohepten-8-one] | 185 to 186 | – |
| O=C1NCCc2ccc(OCCCCN3CCN(c4cccc5c4OCCC5)CC3)nc2N1 (as salt: HCl) [Example 17, 2-[4-(4-Chroman-8-yl-piperazin-1-yl)-butoxy]-5,6,7,9-tetrahydro-1,7,9-triaza-benzocyclohepten-8-one] | 154 to 156 | – |
| O=C1NCCc2ccc(OCCCCN3CCN(c4cccc5ccc(F)cc45)CC3)nc2N1 (as salt: HCl) [Example 18, 2-{4-[4-(7-Fluoro-naphthalen-1-yl)-piperazin-1-yl]-butoxy}-5,6,7,9-tetrahydro-1,7,9-triaza-benzocyclohepten-8-one] | 234 | – |
| CN1CCc2ccc(OCCCCN3CCN(c4cccc(Cl)c4Cl)CC3)cc2NC1=O [Example 25, 8-{4-[4-(2,3-Dichlorophenyl)piperazin-1-yl]butoxy}-3-methyl-1,3,4,5-tetrahydro-benzo[d][1,3]diazepin-2-one] | 139 to 140 | – |
| O=C1NCCc2ccc(OCCCCN3CCN(c4cccc5c(F)cccc45)CC3)cc2N1 [Example 40, 8-{4-[4-(5-Fluoro-naphthalen-1-yl)-piperazin-1-yl]-butoxy}-1,3,4,5-tetrahydro-benzo[d][1,3]diazepin-2-one] | – | 11.4 |
| COc1ccc2cccc(N3CCN(CCCOc4ccc5c(c4)NC(=O)NCC5)CC3)c2n1 [Example 41, 8-{3-[4-(2-Methoxy-quinolin-8-yl)-piperazin-1-yl]-propoxy}-1,3,4,5-tetrahydro-benzo[d][1,3]diazepin-2-one] | – | 1.04 |
| O=C1NCCc2ccc(OCCCCN3CCN(c4cccc5cccc(F)c45)CC3)cc2N1 [Example 42, 8-{4-[4-(8-Fluoro-naphthalen-1-yl)-piperazin-1-yl]-butoxy}-1,3,4,5-tetrahydro-benzo[d][1,3]diazepin-2-one] | – | 2.32 |
| O=C1NCCc2ccc(OCCCN3CCN(c4cccc5ccccc45)CC3)cc2N1 [Example 43, 8-[3-(4-Naphthalen-1-yl-piperazin-1-yl)-propoxy]-1,3,4,5-tetrahydro-benzo[d][1,3]diazepin-2-one] | – | 3.24 |
| O=C1NCCc2ccc(OCCCN3CCN(c4cccc5ccc(F)cc45)CC3)cc2N1 [Example 44, 8-{3-[4-(7-Fluoro-naphthalen-1-yl)-piperazin-1-yl]-propoxy}-1,3,4,5-tetrahydro-benzo[d][1,3]diazepin-2-one] | – | 5.44 |
| O=C1NCCc2ccc(OCCCCN3CCN(c4cccc5c4COCC5)CC3)cc2N1 [Example 45, 8-[4-(4-Isochroman-8-yl-piperazin-1-yl)-butoxy]-1,3,4,5-tetrahydro-benzo[d][1,3]diazepin-2-one] | – | 6.14 |
| CC1(C)Cc2ccc(OCCCCN3CCN(c4cccc5ccccc45)CC3)cc2NC(=O)N1 [Example 59, 4,4-Dimethyl-8-[4-(4-naphthalen-1-yl-piperazin-1-yl)-butoxy]-1,3,4,5-tetrahydro-benzo[d][1,3]diazepin-2-one] | – | 3 |
| CC1(C)Cc2ccc(OCCCN3CCN(c4cccc5ccccc45)CC3)cc2NC(=O)N1 [Example 60, 4,4-Dimethyl-8-[3-(4-naphthalen-1-yl-piperazin-1-yl)-propoxy]-1,3,4,5-tetrahydro-benzo[d][1,3]diazepin-2-one] | – | 9.38 |
